According to patent publication EP0302445B1, “A novel hypoglycemic and growth-promoting agent” (THE PROTOR CO., priority 1987, dated 1992):

Tested on: insulinase
Assay: insulinase inhibitory activity measurement (method of Duckworth et al.)
Type: biochemical
Conditions: fractions of commercial bacitracin, result in words
Method: The desired fraction is believed to have a molecular weight of about 1400, approximately the same as bacitracin A or F. Their anti-insulinase and antibacterial activities can be assayed in conventional manner. For example, the insulinase inhibitory activity was measured according to the method of Duckworth, et al., Proc. Nat. Acad. Sci., 69, 3698-3702 (1972) and the anti-bacterial activity by the method of Patrick, et al., Antibiotics and Chemotherapy, 1, 133-137 (1951).
A 350 ml bed volume of CM-Sepharose in a packed column (2.8 x 56 cm) was equilibrated with 0.05M ammonium acetate, pH 4.5 One gram of commercial bacitracin dissolved in 50 ml of buffer was applied to the packed column. The material was eluted with 2 l of equilibrating buffer followed by 350 ml of 1M ammonium acetate pH 4.5 buffer. Five ml fractions were collected and absorbance measurements at 252, 280 and 290 nm were made. In addition, insulinase inhibitory activity measurements were made on each peak. […] The peaks were collected, lyophilized, weighed and dissolved in water at 5 mg/ml concentration for specific activity measurements. The material collected with the second buffer contained 5-10 % of the total weight of the applied material and 90 % of the total insulinase inhibitory capacity. The specific activity of this material was 10-12 times that of the starting commercial material.

In the case of bacitracin A, the insulinase inhibitory activity is reported as “substantially no anti-insulinase activity” and the insulinase inhibitory activity (listed as Bacitracin A) is reported as “negligible”.
With bacitracin F the insulinase inhibitory activity was “substantially no anti-insulinase activity” and the insulinase inhibitory activity (listed as Bacitracin F) was “negligible”.
